Experimental findings from patent US20260137697A1, “THIAZOLO[5,4-D]PYRIMIDINE COMPOUNDS, COMPOSITIONS COMPRISING THEM AND USES THEREOF” (University de Montreal, priority 2022, published 2026) are described below.

One assay addresses T1, BRAF (Homo sapiens, UniProt P15056).
T1 construct: GST; purchased Millipore Sigma B4062-10UG
Put plainly: BRAF kinase activity assay (ADP-Glo). Particulars: Table 3; 10 μM ATP, kinase-dead MEK1 substrate. It counts as biochemical. In short, it runs like this:
(§1)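 ADP-Glo luminescence read after 2 h reactions at 30° C containing 0.375 nM GST-kinase, kinase-dead MEK1 (75 nM), ATP at 10 μM, pH 7.5 HEPES/MgCl2/DTT, 0.05% DMSO. Compounds dosed from 100 to 0.01 nM (nine points); IC50 from variable-slope fit of % inhibition.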
(In ADP-Glo the light output rises with the ADP produced.)

Another assay deals with T2, CRAF (Homo sapiens, UniProt P04049).
T2 construct: fused on or other part: GST tag (N-terminal according to the vendor's product)
T2 sequence (P04049 whole entry Y340E/Y341E, form open, the tested form may be a part): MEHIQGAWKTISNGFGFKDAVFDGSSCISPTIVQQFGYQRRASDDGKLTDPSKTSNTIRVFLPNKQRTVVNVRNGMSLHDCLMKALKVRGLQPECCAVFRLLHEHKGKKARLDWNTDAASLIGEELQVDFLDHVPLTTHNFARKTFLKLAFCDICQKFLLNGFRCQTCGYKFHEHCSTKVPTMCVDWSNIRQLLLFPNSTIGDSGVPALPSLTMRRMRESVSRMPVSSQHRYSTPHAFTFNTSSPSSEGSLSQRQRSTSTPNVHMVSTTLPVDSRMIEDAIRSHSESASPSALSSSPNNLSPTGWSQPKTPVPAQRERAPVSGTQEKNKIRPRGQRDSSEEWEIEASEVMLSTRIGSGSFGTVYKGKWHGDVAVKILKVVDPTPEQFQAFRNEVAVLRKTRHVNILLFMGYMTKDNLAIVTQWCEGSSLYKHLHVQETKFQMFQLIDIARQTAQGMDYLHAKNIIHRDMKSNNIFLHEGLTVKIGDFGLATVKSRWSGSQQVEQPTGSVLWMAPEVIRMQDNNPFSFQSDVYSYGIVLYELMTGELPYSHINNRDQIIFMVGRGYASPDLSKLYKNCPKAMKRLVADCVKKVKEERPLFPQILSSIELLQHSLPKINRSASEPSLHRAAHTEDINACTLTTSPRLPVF
The experiment in a line: CRAF kinase activity assay (ADP-Glo). It counts as biochemical. The note with it: Table 3; 10 μM ATP, kinase-dead MEK1 substrate. In a few lines:
as §1

The next assay has as its system pERK, HCT116 cells. Put plainly: Phospho-ERK inhibition, AlphaLISA p-ERK 1/2, HCT-116. It counts as cell-based, human. The note with it: Table 3; for IC50: HCT116 cells (KRAS G13D), 1 h treatment; for HCT116 pERK (Ymin %): lowest % inhibition value of the pERK IC50 curve, above −20% = no paradoxical induction. In short, it runs like this: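 Cells in RPMI-1640 with 5% FBS plated overnight, then treated 1 h with ten-point dilutions (10 μM to 0.33 nM, 0.5% DMSO). Lysate p-ERK1/2 (Thr202/Tyr204) read by AlphaLISA SureFire Ultra; % inhibition normalised to DMSO and 1 μM trametinib background, IC50 by four-parameter fit.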
On the technique in general: Alpha assays give light when donor and acceptor beads are brought close together.

T1 sequence (P15056 whole entry): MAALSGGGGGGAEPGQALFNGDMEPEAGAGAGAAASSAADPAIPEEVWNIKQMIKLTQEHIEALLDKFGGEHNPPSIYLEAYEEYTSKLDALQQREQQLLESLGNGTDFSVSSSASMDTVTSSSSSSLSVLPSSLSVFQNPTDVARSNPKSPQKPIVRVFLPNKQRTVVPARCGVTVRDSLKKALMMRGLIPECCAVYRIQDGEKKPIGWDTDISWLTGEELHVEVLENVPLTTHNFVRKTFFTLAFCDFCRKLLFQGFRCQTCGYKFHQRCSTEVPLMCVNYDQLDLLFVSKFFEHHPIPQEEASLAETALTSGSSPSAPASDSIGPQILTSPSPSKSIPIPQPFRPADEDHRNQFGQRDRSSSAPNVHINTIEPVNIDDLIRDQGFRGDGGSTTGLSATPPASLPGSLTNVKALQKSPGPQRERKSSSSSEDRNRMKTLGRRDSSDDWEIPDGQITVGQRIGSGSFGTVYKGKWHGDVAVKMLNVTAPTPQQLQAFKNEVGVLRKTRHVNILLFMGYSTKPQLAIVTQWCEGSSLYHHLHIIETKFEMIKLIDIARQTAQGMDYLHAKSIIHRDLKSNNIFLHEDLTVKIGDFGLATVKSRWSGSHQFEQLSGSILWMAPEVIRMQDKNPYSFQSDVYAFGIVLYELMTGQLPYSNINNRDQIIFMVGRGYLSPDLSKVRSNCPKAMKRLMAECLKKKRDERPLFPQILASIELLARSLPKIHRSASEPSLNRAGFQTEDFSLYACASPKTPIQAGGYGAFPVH

As a reminder, the IC50 is the concentration at which inhibition is half-maximal. Consider `O=S(=O)(Nc1ccc(F)c(Nc2ncnc3sc(-n4cnc5c(OCCO)cccc54)nc23)c1F)c1cccc(Cl)c1Cl` [Example 111], for which the IC50 on BRAF was less than 0.001 µM; at CRAF, less than 0.01 µM; in the assay with pERK, HCT116 cells it was less than 0.5 µM. The “HCT116 pERK (Ymin %)” value with pERK, HCT116 cells was −10%.

In the case of `Cc1c(F)cccc1S(=O)(=O)Nc1ccc(F)c(Nc2ncnc3sc(-n4cnc5c(C(C)(C)C#N)cccc54)nc23)c1F` [Example 112], the IC50 was 0.001 to 0.01 µM on BRAF; less than 0.01 µM at CRAF; less than 0.5 µM in the assay on pERK, HCT116 cells. The “HCT116 pERK (Ymin %)” value in the assay with pERK, HCT116 cells is given as 7%.

As for `CC1(O)CCN(c2cccc3c2ncn3-c2nc3c(Nc4c(F)ccc(NS(=O)(=O)c5cccc(Cl)c5Cl)c4F)ncnc3s2)CC1` [Example 113], the IC50 on BRAF was 0.001 to 0.01 µM; on CRAF, 0.01 to 0.05 µM; in the assay with pERK, HCT116 cells (Homo sapiens, HCT-116), less than 0.5 µM.

On to `O=S(=O)(Nc1ccc(F)c(Nc2ncnc3sc(-n4ccc5ccccc54)nc23)c1F)c1cccc(Cl)c1Cl` [Example 114], for which the IC50 was greater than 0.01 µM on BRAF; greater than 0.05 µM on CRAF; 1 to 10 µM in the assay on pERK, HCT116 cells. Besides, the “HCT116 pERK (Ymin %)” value with pERK, HCT116 cells was −14%.

For the molecule `O=S(=O)(Nc1ccc(F)c(Nc2ncnc3sc(-n4ccc5ncccc54)nc23)c1F)c1cccc(Cl)c1Cl` [Example 115], the IC50 on BRAF is 0.001 to 0.01 µM; on CRAF, less than 0.01 µM; in the assay on pERK, HCT116 cells, less than 0.5 µM. Moreover, the “HCT116 pERK (Ymin %)” value with pERK, HCT116 cells was −11%.

For the molecule `Cc1c(Cl)cccc1S(=O)(=O)Nc1ccc(F)c(Nc2ncnc3sc(-n4cnc5c(C(C)(C)C#N)cccc54)nc23)c1F` [Example 116], the half-maximal inhibitory concentration (IC50) on BRAF is 0.001 to 0.01 µM; on CRAF it was 0.01 to 0.05 µM; with pERK, HCT116 cells it was less than 0.5 µM. Also, the “HCT116 pERK (Ymin %)” value with pERK, HCT116 cells is −3%.

In the case of `COc1ccc(S(=O)(=O)Nc2ccc(F)c(Nc3ncnc4sc(-n5cnc6c(C(C)(C)C#N)cccc65)nc34)c2F)c(C)c1Cl` [Example 117], the half-inhibitory concentration (IC50) is greater than 0.01 µM at BRAF; 0.01 to 0.05 µM at CRAF; 0.5 to 1 µM with pERK, HCT116 cells. In the assay on pERK, HCT116 cells, the “HCT116 pERK (Ymin %)” value is reported as −15%.

As for `COc1ccc(S(=O)(=O)Nc2ccc(F)c(Nc3ncnc4sc(-n5cnc6c(C(C)(C)C#N)cccc65)nc34)c2F)c(C)c1F` [Example 118], the IC50 on BRAF is greater than 0.01 µM; on CRAF, greater than 0.05 µM; with pERK, HCT116 cells, less than 0.5 µM. Besides, the “HCT116 pERK (Ymin %)” value in the assay with pERK, HCT116 cells is reported as −14%.

For `COCCOc1cccc2c1ncn2-c1nc2c(Nc3c(F)ccc(NS(=O)(=O)c4cccc(Cl)c4Cl)c3F)ncnc2s1` [Example 119], the IC50 is less than 0.001 µM at BRAF; less than 0.01 µM on CRAF; less than 0.5 µM in the assay with pERK, HCT116 cells. Moreover, the “HCT116 pERK (Ymin %)” value with pERK, HCT116 cells was −1%.

Turning to `N#Cc1cccc2c1ncn2-c1nc2c(Nc3c(F)ccc(NS(=O)(=O)c4cccc(Cl)c4Cl)c3F)ncnc2s1` [Example 120], the 50% inhibitory concentration (IC50) on BRAF was 0.001 to 0.01 µM; at CRAF, less than 0.01 µM; in the assay on pERK, HCT116 cells (Homo sapiens, HCT-116) it was less than 0.5 µM.

Regarding `O=S(=O)(Nc1ccc(F)c(Nc2ncnc3sc(-n4cnc(CCO)c4)nc23)c1F)c1cccc(Cl)c1Cl` [Example 121], the half-maximal inhibitory concentration (IC50) on BRAF is 0.001 to 0.01 µM; at CRAF, 0.01 to 0.05 µM; with pERK, HCT116 cells it was 0.5 to 1 µM. For the same molecule, the “HCT116 pERK (Ymin %)” value in the assay on pERK, HCT116 cells is listed as −11%.

As to `NC(=O)c1cccc2c1ncn2-c1nc2c(Nc3c(F)ccc(NS(=O)(=O)c4cccc(Cl)c4Cl)c3F)ncnc2s1` [Example 123], the IC50 on BRAF is 0.001 to 0.01 µM; at CRAF, less than 0.01 µM; in the assay with pERK, HCT116 cells, less than 0.5 µM. Besides, in the assay with pERK, HCT116 cells, the “HCT116 pERK (Ymin %)” value is −11%.

For the molecule `N#CCc1cn(-c2nc3c(Nc4c(F)ccc(NS(=O)(=O)c5cccc(Cl)c5Cl)c4F)ncnc3s2)cn1` [Example 124], the IC50 on BRAF was 0.001 to 0.01 µM; at CRAF it was less than 0.01 µM; with pERK, HCT116 cells, less than 0.5 µM. For the same molecule, the “HCT116 pERK (Ymin %)” value with pERK, HCT116 cells came out at 12%.

Turning to `Cc1cn(-c2nc3c(Nc4c(F)ccc(NS(=O)(=O)c5cccc(Cl)c5Cl)c4F)ncnc3s2)cn1` [Example 125], the IC50 on BRAF was 0.001 to 0.01 µM; at CRAF, less than 0.01 µM; in the assay with pERK, HCT116 cells it was 0.5 to 1 µM. Moreover, in the assay with pERK, HCT116 cells, the “HCT116 pERK (Ymin %)” value is 2%.

Regarding `O=S(=O)(Nc1ccc(F)c(Nc2ncnc3sc(-n4cnc5c(CCO)cccc54)nc23)c1F)c1cccc(Cl)c1Cl` [Example 126], the concentration for half-maximal inhibition (IC50) is less than 0.001 µM on BRAF; less than 0.01 µM at CRAF; less than 0.5 µM in the assay on pERK, HCT116 cells. The “HCT116 pERK (Ymin %)” value in the assay with pERK, HCT116 cells is on record as −9%.

With `O=S(=O)(Nc1ccc(F)c(Nc2ncnc3sc(-n4cnc5c(N6CC7CC6CO7)cccc54)nc23)c1F)c1cccc(Cl)c1Cl` (centres unmarked) [Example 127], the 50% inhibitory concentration (IC50) at BRAF was 0.001 to 0.01 µM; at CRAF, 0.01 to 0.05 µM; in the assay on pERK, HCT116 cells, less than 0.5 µM. Moreover, the “HCT116 pERK (Ymin %)” value in the assay with pERK, HCT116 cells was 1%.

Turning to `COCCCN(C)c1cccc2c1ncn2-c1nc2c(Nc3c(F)ccc(NS(=O)(=O)c4cccc(Cl)c4Cl)c3F)ncnc2s1` [Example 128], the IC50 on BRAF is 0.001 to 0.01 µM; on CRAF, 0.01 to 0.05 µM; in the assay with pERK, HCT116 cells, less than 0.5 µM. In addition, in the assay with pERK, HCT116 cells, the “HCT116 pERK (Ymin %)” value amounted to 1%.

As to `O=S(=O)(Nc1ccc(F)c(Nc2ncnc3sc(-n4cnc5c(N6C7CCC6CC(O)C7)cccc54)nc23)c1F)c1cccc(Cl)c1Cl` (centres unmarked) [Example 129], the IC50 is 0.001 to 0.01 µM at BRAF; greater than 0.05 µM at CRAF; less than 0.5 µM with pERK, HCT116 cells. Further, the “HCT116 pERK (Ymin %)” value in the assay on pERK, HCT116 cells came to 0%.

Take `CC(=O)N1CCN(c2cccc3c2ncn3-c2nc3c(Nc4c(F)ccc(NS(=O)(=O)c5cccc(Cl)c5Cl)c4F)ncnc3s2)CC1` [Example 130]: the half-maximal inhibitory concentration (IC50) at BRAF is less than 0.001 µM; on CRAF it was less than 0.01 µM; in the assay on pERK, HCT116 cells, less than 0.5 µM. Also, in the assay on pERK, HCT116 cells, the “HCT116 pERK (Ymin %)” value is on record as −2%.

For the molecule `COCCOCCOc1cccc2c1ncn2-c1nc2c(Nc3c(F)ccc(NS(=O)(=O)c4cccc(Cl)c4Cl)c3F)ncnc2s1` [Example 131], the IC50 at BRAF is 0.001 to 0.01 µM; on CRAF, less than 0.01 µM; in the assay with pERK, HCT116 cells, less than 0.5 µM. In addition, the “HCT116 pERK (Ymin %)” value with pERK, HCT116 cells is on record as 0%.

In the case of `COC[C@@H]1CCCN1c1cccc2c1ncn2-c1nc2c(Nc3c(F)ccc(NS(=O)(=O)c4cccc(Cl)c4Cl)c3F)ncnc2s1` [Example 132], the IC50 at BRAF is greater than 0.01 µM; on CRAF, greater than 0.05 µM; with pERK, HCT116 cells, 1 to 10 µM. In addition, the “HCT116 pERK (Ymin %)” value in the assay with pERK, HCT116 cells is reported as −11%.

Turning to `Nc1ccncc1-c1cccc2c1ncn2-c1nc2c(Nc3c(F)ccc(NS(=O)(=O)c4cccc(Cl)c4Cl)c3F)ncnc2s1` [Example 133], the IC50 at BRAF lay in the range of 0.001 to 0.01 µM; on CRAF, 0.01 to 0.05 µM; in the assay with pERK, HCT116 cells it was 1 to 10 µM. In addition, in the assay on pERK, HCT116 cells, the “HCT116 pERK (Ymin %)” value was −12%.

For the molecule `Nc1ncccc1-c1cccc2c1ncn2-c1nc2c(Nc3c(F)ccc(NS(=O)(=O)c4cccc(Cl)c4Cl)c3F)ncnc2s1` [Example 134], the IC50 at BRAF was 0.001 to 0.01 µM; on CRAF, 0.01 to 0.05 µM; with pERK, HCT116 cells it was less than 0.5 µM. Besides, the “HCT116 pERK (Ymin %)” value in the assay on pERK, HCT116 cells was −5%.

Turning to `COC1(C)CCN(c2cccc3c2ncn3-c2nc3c(Nc4c(F)ccc(NS(=O)(=O)c5cccc(Cl)c5Cl)c4F)ncnc3s2)CC1` [Example 135], the IC50 was 0.001 to 0.01 µM on BRAF; greater than 0.05 µM on CRAF; less than 0.5 µM in the assay on pERK, HCT116 cells. Also, the “HCT116 pERK (Ymin %)” value in the assay on pERK, HCT116 cells was −5%.

In the case of `O=S(=O)(Nc1ccc(F)c(Nc2ncnc3sc(-n4cnc5c(N6CCC7(CCCO7)CC6)cccc54)nc23)c1F)c1cccc(Cl)c1Cl` [Example 136], the IC50 is greater than 0.01 µM at BRAF; 0.01 to 0.05 µM at CRAF; less than 0.5 µM in the assay on pERK, HCT116 cells. Besides, the “HCT116 pERK (Ymin %)” value in the assay on pERK, HCT116 cells is −17%.
